Results: publication PMC12728192, “The dynamic lateral gate of the mitochondrial β-barrel biogenesis machinery is blocked by darobactin A” (Nature Communications, 2025)

Target: T1, T. thermophilus SAM complex (TtSAM; Sam50:Sam35:Sam37) (Thermothelomyces thermophilus, UniProt G2QFF9)
T1 construct: gene MYCTH_2094326; codon-optimized, co-expressed in S. cerevisiae W303.1B; Strep-Tactin purified monomeric 1:1:1 complex in LMNG/GDN or GDN; 10xHis or TwinStrep tags with linkers and TEV sites in some constructs; with Sorting and assembly machinery subunit Sam35; Sorting and assembly machinery subunit Sam37
T1 sequence (G2QFF9 entry or part of it): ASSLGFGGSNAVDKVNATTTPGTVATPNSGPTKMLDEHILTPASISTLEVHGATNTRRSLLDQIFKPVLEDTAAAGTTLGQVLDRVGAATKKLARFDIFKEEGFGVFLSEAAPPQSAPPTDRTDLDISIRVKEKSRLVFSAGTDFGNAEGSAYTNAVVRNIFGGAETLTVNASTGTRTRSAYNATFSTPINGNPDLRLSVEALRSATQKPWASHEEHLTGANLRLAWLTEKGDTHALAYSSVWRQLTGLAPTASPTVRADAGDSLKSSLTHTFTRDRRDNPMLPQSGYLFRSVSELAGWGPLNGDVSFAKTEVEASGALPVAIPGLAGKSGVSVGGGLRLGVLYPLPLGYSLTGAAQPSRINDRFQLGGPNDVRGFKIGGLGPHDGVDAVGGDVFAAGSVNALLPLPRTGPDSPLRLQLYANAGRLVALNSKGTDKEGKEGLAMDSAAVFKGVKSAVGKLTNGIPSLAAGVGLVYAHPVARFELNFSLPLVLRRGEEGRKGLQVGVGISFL
T1 sequence (G2Q6R7 entry or part of it, further chain): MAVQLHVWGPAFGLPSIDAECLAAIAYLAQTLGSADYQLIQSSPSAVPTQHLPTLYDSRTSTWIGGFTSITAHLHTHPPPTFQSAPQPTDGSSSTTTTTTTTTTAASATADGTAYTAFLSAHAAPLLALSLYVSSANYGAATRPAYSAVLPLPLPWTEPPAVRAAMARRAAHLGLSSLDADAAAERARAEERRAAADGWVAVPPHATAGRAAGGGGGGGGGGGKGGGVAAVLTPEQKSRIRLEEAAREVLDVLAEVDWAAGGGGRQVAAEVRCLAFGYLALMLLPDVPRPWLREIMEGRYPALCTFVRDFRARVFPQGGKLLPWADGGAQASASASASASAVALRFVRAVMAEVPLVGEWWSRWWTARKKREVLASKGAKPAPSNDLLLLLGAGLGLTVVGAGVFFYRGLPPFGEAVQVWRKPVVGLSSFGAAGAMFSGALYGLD
T1 sequence (G2QAT9 entry or part of it, further chain): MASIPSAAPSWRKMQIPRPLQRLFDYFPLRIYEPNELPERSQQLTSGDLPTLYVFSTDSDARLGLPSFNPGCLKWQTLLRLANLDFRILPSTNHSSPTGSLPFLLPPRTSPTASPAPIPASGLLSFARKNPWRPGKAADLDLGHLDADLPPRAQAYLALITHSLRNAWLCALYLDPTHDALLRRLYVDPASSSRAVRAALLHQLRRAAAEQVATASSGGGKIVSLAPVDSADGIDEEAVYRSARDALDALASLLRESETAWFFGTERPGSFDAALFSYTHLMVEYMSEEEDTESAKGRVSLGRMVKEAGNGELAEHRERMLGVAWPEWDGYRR
Assay: cryo-EM structure; LC/MS of purified complex
Format: binding
Conditions: co-purified from yeast membranes; modelled on back side of Sam50 barrel and beneath Sam37 cytosolic domain

CC(C)[C@@H](C)/C=C/[C@@H](C)[C@H]1CC[C@H]2C3=CC=C4C[C@@H](O)CC[C@]4(C)[C@H]3CC[C@]12C [ergosterol] was tested. Which “cryo-EM structure; LC/MS of purified complex” value did it give?
Its value is “We have modeled these lipids as ergosterol molecules”.
